Broadly, the TGI is the concentration giving total growth inhibition. The low end stands for more potent growth arrest, the high end for less potent growth arrest. Broadly, the GI50 is the concentration that inhibits growth by half.

“And” between values parts separate entries of the source, which are not always exact repeats. Identical values can stand only once.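 Cells were grown in 96-well plates and exposed to each compound for 48 hours at five concentrations; endpoints were interpolated linearly between bracketing concentrations, or set to the highest concentration if not reached. Abbreviation: GI50, concentration required for 50% inhibition of growth. TGI is the concentration that stops growth completely.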

Experiment in all cases: DTP human tumour cell line panel, 48 h
Test [1] concerns RPMI-8226 leukemia.
For test [2], the system named is SN12C renal.
Test [3] relates to SF-268 CNS.
Test [4] concerns UO-31 renal.
For test [5], the system named is HL-60(TB) leukemia.
Test [6] concerns SF-539 CNS.
Test [7] relates to NCI-H522 lung.
The subject of test [8] is SNB-19 CNS.
In test [9] the test system is M14 melanoma.
Test [10] deals with COLO 205 colon.
Test [11] deals with K-562 leukemia.
Test [12] deals with KM12 colon.
The subject of test [13] is HT29 colon.

Regarding `O=c1cnn(C/C=C/CP(=O)(O)O)c(=O)[nH]1`, the concentration for total growth inhibition (TGI) in test [1], in test [2], in test [3], in test [4], in [5] and in test [6] was > 100 µM each time. Further, the TGI in [7], in [8], in test [9], in test [10], in test [11] and in test [12] was > 100 µM each time.
As to `CC(C)OP(=O)(OC(C)C)c1nn(-c2ccc([N+](=O)[O-])cc2)c(=N)s1`, the concentration for total growth inhibition (TGI) in [1], in test [13], in [2], in [3], in test [4] and in test [5] was > 100 µM in each case. Also, the total growth inhibition concentration (TGI) in test [6], in test [7], in [8], in test [9], in test [10] and in [11] was > 100 µM throughout. In addition, the TGI in test [12] is > 100 µM.
For `CCOC(=O)c1csc(NC(=O)CN2CCCCC2)n1`, the TGI in [1], in test [13], in test [3], in [4], in [5] and in test [6] was > 100 µM throughout. In addition, the total growth inhibition concentration (TGI) in test [8], in [9], in test [10], in [11] and in test [12] was > 100 µM throughout.
On to `COC1C(=[N+]=[N-])C(=O)NC(=O)N1C1OC(COC(c2ccccc2)(c2ccccc2)c2ccccc2)C(O)C1O` (configuration not stated), for which the TGI in test [1] is 61.8 µM; in [13], 35.3 µM; in test [2] it was 32.7 µM; in test [3] it was 35.7 µM; in test [4], 32.2 µM; in [5], 46.7 µM. Further, the total growth inhibition concentration (TGI) in test [6] was found to be 35.6 µM; in test [7], 31 µM; in test [8] it was 34 µM; in [9], 34.6 µM; in test [10], 38 µM; in test [11] it was 49.4 µM. For the same compound, in [12], the TGI came out at 30.5 µM.
Take `OC12c3ccccc3C1CCCCCCCCCC21OCCCO1` (configuration not stated): the TGI in test [1], in test [13], in test [2], in test [3], in test [4] and in test [5] was > 100 µM in each case. Moreover, the TGI in test [6], in [7], in test [8], in test [9], in [10] and in test [11] was > 100 µM throughout. The TGI in test [12] is > 100 µM.
In the case of `COc1cccc(N2C(=O)CSC2c2c[nH]c3ccccc23)c1` (configuration not stated), the TGI in test [13], in test [2], in test [3], in test [4], in [5] and in [7] was > 100 µM each time. Besides, the concentration for total growth inhibition (TGI) in test [8], in test [9], in test [10], in test [11] and in [12] was > 100 µM in each case.
As for `COC(=O)C1C(O)C(C)C(O)C(C)/C=C\C=C(C)C(=O)Nc2c(C)c(OC(C)=O)c3c(c2O)C(=O)C(C)=C2OCOC(=C23)C(C)=CC(C)(O)C(O)C(C)C1O` (configuration not stated), the GI50 in [1] was 15.9 µM and 64.3 µM; in [2] it was 49 µM and > 100 µM; in [3], 39.4 µM; in [7] it was 23.4 µM and 74.2 µM; in [11], 28.3 µM and > 100 µM; in test [12] it was 25.1 µM and > 100 µM. Moreover, the TGI was 41.3 µM and > 100 µM in test [1]; 40.2 µM and > 100 µM in [13]; > 100 µM in test [2]; > 100 µM in test [3]; > 100 µM in test [4]; 42.2 µM and > 100 µM in test [5]. Besides, the TGI is 74.3 µM and > 100 µM in test [6]; > 100 µM in [7]; > 100 µM in [8]; > 100 µM in test [9]; 36.3 µM and 58.6 µM in test [10]; > 100 µM in test [11]. The TGI in test [12] was > 100 µM.
